Where “and” joins values, the source holds several entries; their conditions need not be identical. Identical values can stand only once. Like-named read-outs stand apart in the source and are kept apart here.
Tests used:
[1] = Thermodynamic aqueous solubility in PBS; format: physicochemical
Description: After completion of incubation, the microcentrifuge tube was centrifuged at 10,000× g for 10 min. The supernatant (100 μL) was mixed with an equal volume of ACN and centrifuged again at 10,000× g for 10 min. The supernatant was further diluted 80× times with mobile phase and transferred to autosampler vials and analyzed by LC-MS/MS.

[2] = Gastrointestinal fluid stability (SGF, SIF, PBS); format: physicochemical; details: 37 °C, 1 µg/mL
Description: The gastric stability of MO-OH-Nap was determined at different physiological pH conditions using simulated gastric/intestinal fluid (SGF/SIF) or PBS (pH7.4) prepared with USP specifications. Briefly, simulated gastric fluid (SGF), pH 1.2, was prepared by dissolving […] of sodium chloride (NaCl) and 3.2 g of pepsin in 7 mL hydrochloric acid (HCl) and a sufficient amount of water to make 1000 mL. The simulated intestinal fluid (SIF), pH 6.8, was prepared by dissolving 6.805 g of monobasic potassium phosphate in 250 mL of water. Then 77 mL of 0.2 N sodium hydroxide (NaOH) was mixed with 500 mL water and 10 g of pancreatin, then made up to 1000 mL. The SIF solution is adjusted to pH 6.8 ± 0.1 with either 0.2 N NaOH or 0.2 N HCl. MO-OH-Nap at 1 µg/mL concentration was incubated with SGF, SIF and PBS (100 mM pH 7.4) at 37 °C on a shaking water bath, n = 3. Samples (100 µL) were collected at 0, 15, 30, 60, and 120 min. Immediately after sample collection, 300 µL ACN was added as a quenching solvent to stop chemical degradation. IS solution (10 µL from 1 µg/mL stock) was added to each sample, vortexed the centrifuged at 14,000 rpm (22,000× g) and 4 °C, and then transferred to HPLC vial for LC-MS/MS analysis. Stability was determined through the percentage of the parent drug remaining at different time points relative to the parent drug at 0 min (100% parent).

[3] = Blood to plasma ratio (B/P) in fresh mouse blood; format: in vitro ADME; details: 1 µM, 37 °C
Description: Fresh mouse blood (800 µL) was incubated in a water bath maintained at 37 °C for 10 min prior to drug spiking. Blood was spiked with the drug at concentrations of 1 µM to maintain organic content < 1%. Aliquots of 50 µL were collected at different time points (0, 30, and 60 min) for blood analysis as well an additional sample of 120 µL was collected into a micro-centrifuge tube and centrifuged at 4000× g for 10 min at 4 °C to separate 50 µL plasma for analysis. For matrix match and calibration, blank plasma of 50 µL was added to the collected blood aliquot, and 50 µL of blank blood was added to the extract of 50 µL plasma. The whole blood and plasma samples were further processed by PPT as described above. The analyte peak area ratios were used to calculate the (B/P) ratio using Equation (5). (5) (B/P) ratio=Blood Concentration /Plasma Concentration

[4] = In vitro metabolic stability in human liver microsomes; format: in vitro ADME; details: HLM
Description: Metabolic stability was assessed using mouse, rat, and human liver microsomes (XenoTech, LLC, Lenexa, KS, USA) for phase I metabolism. Briefly, A reaction solution was prepared by mixing […] of PBS (100 mM, pH 7.4), 25 µL of microsomal protein (20 mg/mL), MgCl2 (5 µL; 10 mM), and 50 µL of NADPH (2 mM). The final volume (0.5 mL) was pre-incubated for 10 min in a 37 °C water bath at 60 rpm. An aliquot of MO-OH-Nap (2 µL from 1 µg/mL stock) was spiked into the above solution to initiate the reaction. Aliquots of (50 µL) were collected at time intervals (0, 5, 15, 20, 30, 45, and 60 min) and quenched with 300 µL of ACN, […]. Afterwards, 10 µL of IS stock (1.0 µg/mL) was spiked in each sample then vortexed (5 min) and centrifuged at 10,800 rpm (13,000× g) for 15 min. Samples were vortexed and centrifuged at 10,800 rpm (13,000× g) for 15 min, the supernatant was collected and transferred to an HPLC vial and 10 µL were injected into the LC-MS/MS system. Testosterone and diclofenac were used as positive and negative controls to ensure that liver microsomes and incubation conditions were appropriate for conducting metabolism studies.

[5] = Plasma pharmacokinetics after single IP dose in CD-1 mice; format: in vivo, mouse; details: for Cmax / Vd/F / AUC: 5 mg/kg
Description: Female CD-1 mice,6–8-week-old, with weights ranging from 20 to 25 g were housed in the UNMC animal facility, at a temperature of 23–24 °C, relative humidity of 40–70%, and 12/12-h light/dark cycles. Mice were left to acclimatize to laboratory conditions for 7 days prior to experimental day. MO-OH-Nap was dissolved in a 5% DMSO, 45% w/v hydroxypropyl-β-cyclodextrin solution in PBS (final concentration 0.625 mg/mL MO-OH-Nap). MO-OH-Nap (5 mg/kg) was administered IP. After dosing, approximately 100 µL of blood was collected in Lithium-Heparin-Microvette 300 µL Capillary Blood Collection Tube (SARSTEDT AG& Co., Nümbrecht, Germany) from the maxillary vein at 5, 15, 30 min and 1, 2, 4, 6, 8, 24, and 48 h. Two blood time points were collected from every mouse and the third time point was the terminal time point, for a total of three time points from each mouse (5 mice/group/per time point). Blood was centrifuged at 4000× g at 4 °C for 10 min to extract plasma. The collected plasma samples were stored at −80 °C until analysis. The pharmacokinetics of MO-OH-Nap were determined using non-compartmental (NCA) pharmacokinetics analysis, utilizing Phoenix® WinNonlin software version 8.2 (Certara Corporation, Mountain View, CA, USA). The Cmax and Tmax were determined from visual inspection of the concentration time data. The AUC0_∞ was estimated using the linear trapezoidal method from 0 time point to last time point (0-tlast) and extrapolation from last time point to infinity based on the observed concentration at the last time point divided by the terminal elimination rate constant (k). The t1/2, CL/F and Vd/F were calculated using Equation (10), Equation (11) and Equation (12), respectively. (10) t1/2=0.693/k (11) CL=Dose/AUC0_∞ (12) Vd=Dose /k×AUC0_∞

[6] = female, mouse, CD-1 mice, single IP 5 mg/kg, plasma

What does the source list for O=c1c(O)ccccc1-c1ccc2ccccc2c1 [MO-OH-Nap, MO-OH-Nap tropolone]?
solubility class per USP ([1]; PBS pH 7.4): partially soluble and very slightly soluble; solubility at 24 h ([1]; phosphate buffered saline (PBS), PBS pH 7.4, 24 h): 20.2 µg/mL and 80.1 µM; drug remaining ([2]; PBS pH 7.4, 120 min): > 80%; drug remaining ([2]; SGF pH 1.2, 120 min): > 80%; drug remaining ([2]; SIF pH 6.8, 120 min): > 80%; B/P Ratio ([3]; 0 min): 1.1 ± 0.1; B/P Ratio ([3]; 30 min): 0.9 ± 0.2; B/P Ratio ([3]; 60 min): 1.0 ± 0.12; metabolic depletion ([4]; NADPH, 60 min): < 15%; parent drug remaining ([4]; all time points to 60 min): > 95%; detectability in plasma ([5]; 48 h after single IP 5 mg/kg): detectable; Cmax ([5]; CD-1 mice, single IP 5 mg/kg, plasma): 3040.9 ng/mL; Vd/F ([5]; CD-1 mice, single IP 5 mg/kg): 43,727.1 mL/kg; AUC ([5]; female, CD-1, mouse, plasma, ip, CD-1 mice, single IP 5 mg/kg, plasma, read-out: AUC0_last): 2750 ng·h/mL; AUC ([5]; female, CD-1, mouse, plasma, ip, CD-1 mice, single IP 5 mg/kg, plasma, read-out: AUC0_∞): 2860 ng·h/mL; Cmax ([5]; female, CD-1, mouse, plasma, ip, CD-1 mice, single IP 5 mg/kg, plasma, read-out: Cmax): 3040 ng/mL; Vd/F ([5]; female, CD-1, mouse, plasma, ip, CD-1 mice, single IP 5 mg/kg, read-out: Vd/F): 43.3 L/kg; CL/F ([5]; female, mouse, plasma, CD-1 mice, single IP 5 mg/kg): 29.8 mL/min/kg; Tmax [5, 6]: 0.3 h; half-life [5, 6]: 17.7 h
